Measured values from publication PMC8296573, “Synthesis and Biological Evaluation of Fingolimod Derivatives as Antibacterial Agents” (ACS Omega, 2021).
≈ marks a conversion by molar mass, not a printed value. Read-outs that look alike come from different tables or passages of the source.

How the values were obtained:
[1] = tested on: S. aureus ATCC 25923; test: Antibacterial activity, pre-exposure (planktonic cells and biofilm formation); assay type: cell-based, Staphylococcus aureus; conditions: for MIC / inhibition at 5 µM / inhibition at 10 µM / inhibition at 15 µM / inhibition at 25 µM: Staphylococcus aureus, ATCC25923; for inhibition at 5 µM / inhibition at 10 µM / inhibition at 15 µM / inhibition at 25 µM / Average inhibition %, biofilms viability / Average inhibition %, planktonic cells viability: pre-exposure, ± SD
Outline: (§1)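 Read-outs were turbidity and resazurin reduction for planktonic cells, and resazurin followed by crystal violet biomass (A595) for biofilms. Compounds were present from inoculation onward, with 18 h aerobic growth at 37 °C under shaking.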

[2] = tested on: S. aureus ATCC 25923; test: Antibacterial activity, post-exposure on preformed 18-h-old biofilms; assay type: cell-based, Staphylococcus aureus; conditions: ± SD; for inhibition at 25 µM / inhibition at 50 µM / inhibition at 100 µM / inhibition at 200 µM: Staphylococcus aureus; for inhibition at 25 µM: ATCC25923, 25 µM; for inhibition at 50 µM: ATCC25923, 50 µM; for inhibition at 100 µM: ATCC25923, 100 µM; for inhibition at 200 µM: ATCC25923, 200 µM
Outline: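 Biofilms grown 18 h without compound, medium then replaced and compound added for a further 24 h. Planktonic OD and resazurin (20 μM final) fluorescence (ex 560/em 590 nm) read; washed biofilms stained with 20 μM resazurin 30 min at 37 °C, then ethanol-fixed and crystal violet-stained, absorbance 595 nm.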

[3] = tested on: A. baumannii NCTC 13423; test: Antibacterial activity, pre-exposure; assay type: cell-based, Acinetobacter baumannii; conditions: for Average inhibition %, biofilms viability / Average inhibition %, planktonic cells viability / inhibition at 10 µM / inhibition at 15 µM / inhibition at 25 µM / inhibition at 50 µM: A. baumannii NCTC 13423, pre-exposure, ± SD; for inhibition at 10 µM / inhibition at 15 µM / inhibition at 25 µM / inhibition at 50 µM: Acinetobacter baumannii, NCTC13423
Outline: as §1

[4] = tested on: P. aeruginosa ATCC 9027; test: Antibacterial activity, pre-exposure; assay type: cell-based, Pseudomonas aeruginosa; conditions: for Average inhibition %, biofilms viability / Average inhibition %, planktonic cells viability / inhibition at 50 µM / inhibition at 100 µM / inhibition at 150 µM / inhibition at 200 µM: P. aeruginosa ATCC 9027, pre-exposure, ± SD; for inhibition at 50 µM / inhibition at 100 µM / inhibition at 150 µM / inhibition at 200 µM: Pseudomonas aeruginosa, ATCC9027
Outline: as §1

[5] = 10 µM, read-out: Average inhibition %, biofilms biomass
[6] = 10 µM, read-out: Average inhibition %, planktonic cells turbidity
[7] = 15 µM, read-out: Average inhibition %, biofilms biomass
[8] = 15 µM, read-out: Average inhibition %, planktonic cells turbidity
[9] = 25 µM, read-out: Average inhibition %, biofilms biomass
[10] = 25 µM, read-out: Average inhibition %, planktonic cells turbidity
[11] = read-out: Average inhibition %, biofilms biomass
[12] = read-out: Average inhibition %, planktonic cells turbidity
[13] = 50 µM, read-out: Average inhibition %, biofilms biomass
[14] = 50 µM, read-out: Average inhibition %, planktonic cells turbidity

- MIC ([1]; lowest concentration with no visible growth (>90% inhibition of turbidity and viability of planktonic cells), 18 h, read-out: MIC S. aureus ATCC 25923): 50 to 100 µM (≈ 17.6 to 35.2 µg/mL)
- MIC ([1]; read-out: MIC (S. aureus)): 50 to 100 µM (≈ 17.6 to 35.2 µg/mL)
- MIC A. baumannii NCTC 13423 ([3]; pre-exposure, Inactive = no activity up to 50 μM, > = some inhibition but no MIC reached): Inactive
- MIC P. aeruginosa ATCC 9027 ([4]; pre-exposure, Inactive = no activity up to 200 μM, > = some inhibition but no MIC reached): Inactive
SMILES: CCCCCCCCCCOc1ccc(CCC(N)(CO)CO)cc1 [Compound 49, 2-Amino-2-[4-(decyloxy)phenethyl]propane-1,3-diol]
- inhibition at 5 µM ([1]; 5 µM, read-out: Average inhibition %, biofilms biomass): 21.1 ± 15.7%
- inhibition at 5 µM ([1]; 5 µM, read-out: Average inhibition %, planktonic cells turbidity): 25 ± 31.1%
- inhibition at 10 µM [1, 5]: 24.7 ± 21.7%
- inhibition at 10 µM [1, 6]: 40.2 ± 21.5%
- inhibition at 15 µM [1, 7]: 42.1 ± 13.8%
- inhibition at 15 µM [1, 8]: 32.7 ± 33.7%
- inhibition at 25 µM [1, 9]: 65 ± 8%
- inhibition at 25 µM [1, 10]: 52 ± 35.7%
- Average inhibition %, biofilms viability ([1]; 5 µM): 21.8 ± 13.4%
- Average inhibition %, planktonic cells viability ([1]; 5 µM): 5.8 ± 6.5%
- Average inhibition %, biofilms viability ([1]; 10 µM): 19.2 ± 19.6%
- Average inhibition %, planktonic cells viability ([1]; 10 µM): 16 ± 20.8%
- Average inhibition %, biofilms viability ([1]; 15 µM): 34.9 ± 12.5%
- Average inhibition %, planktonic cells viability ([1]; 15 µM): 6.5 ± 7.4%
- Average inhibition %, biofilms viability ([1]; 25 µM): 46.4 ± 5.4%
- Average inhibition %, planktonic cells viability ([1]; 25 µM): 34.4 ± 41.1%
- Average inhibition %, biofilms viability ([2]; 25 µM): 23.1 ± 12%
- Average inhibition %, planktonic cells viability ([2]; 25 µM): 0 ± 0%
- Average inhibition %, biofilms viability ([2]; 50 µM): 31.6 ± 11.1%
- Average inhibition %, planktonic cells viability ([2]; 50 µM): 0 ± 0%
- Average inhibition %, biofilms viability ([2]; 100 µM): 30.4 ± 13.1%
- Average inhibition %, planktonic cells viability ([2]; 100 µM): 6 ± 10.4%
- Average inhibition %, biofilms viability ([2]; 200 µM): 18.9 ± 12.3%
- Average inhibition %, planktonic cells viability ([2]; 200 µM): 24.6 ± 9.6%
- inhibition at 25 µM [2, 11]: 46.2 ± 2.6%
- inhibition at 25 µM [2, 12]: 1 ± 1.8%
- inhibition at 50 µM [2, 11]: 41.6 ± 16.2%
- inhibition at 50 µM [2, 12]: 6.6 ± 6.1%
- inhibition at 100 µM [2, 11]: 47.3 ± 10.1%
- inhibition at 100 µM [2, 12]: 18.3 ± 26.2%
- inhibition at 200 µM [2, 11]: 41.4 ± 16.7%
- inhibition at 200 µM [2, 12]: 45 ± 23.1%
- Average inhibition %, biofilms viability ([3]; 10 µM): 0 ± 0%
- Average inhibition %, planktonic cells viability ([3]; 10 µM): 12 ± 4.3%
- Average inhibition %, biofilms viability ([3]; 15 µM): 0 ± 0%
- Average inhibition %, planktonic cells viability ([3]; 15 µM): 8.5 ± 10.6%
- Average inhibition %, biofilms viability ([3]; 25 µM): 0 ± 0%
- Average inhibition %, planktonic cells viability ([3]; 25 µM): 2.6 ± 4.5%
- Average inhibition %, biofilms viability ([3]; 50 µM): 9 ± 8.3%
- Average inhibition %, planktonic cells viability ([3]; 50 µM): 0 ± 0%
- inhibition at 10 µM [3, 5]: 0%
- inhibition at 10 µM [3, 6]: 0%
- inhibition at 15 µM [3, 7]: 1.5 ± 2.4%
- inhibition at 15 µM [3, 8]: 0%
- inhibition at 25 µM [3, 9]: 1.1 ± 1.9%
- inhibition at 25 µM [3, 10]: 0%
- inhibition at 50 µM [3, 13]: 4.1 ± 7.2%
- inhibition at 50 µM [3, 14]: 1.2 ± 2.1%
- Average inhibition %, biofilms viability ([4]; 50 µM): 1.1 ± 1%
- Average inhibition %, planktonic cells viability ([4]; 50 µM): 11.2 ± 5%
- Average inhibition %, biofilms viability ([4]; 100 µM): 1.4 ± 1.7%
- Average inhibition %, planktonic cells viability ([4]; 100 µM): 11 ± 9.5%
- Average inhibition %, biofilms viability ([4]; 150 µM): 1.8 ± 2.2%
- Average inhibition %, planktonic cells viability ([4]; 150 µM): 10.3 ± 10.8%
- Average inhibition %, biofilms viability ([4]; 200 µM): 4.2 ± 7.4%
- Average inhibition %, planktonic cells viability ([4]; 200 µM): 8.8 ± 10.7%
- inhibition at 50 µM [4, 13]: 5.1 ± 7.7%
- inhibition at 50 µM [4, 14]: 11.2 ± 9.7%
- inhibition at 100 µM ([4]; 100 µM, read-out: Average inhibition %, biofilms biomass): 2.5 ± 1.1%
- inhibition at 100 µM ([4]; 100 µM, read-out: Average inhibition %, planktonic cells turbidity): 19.8 ± 7.4%
- inhibition at 150 µM ([4]; 150 µM, read-out: Average inhibition %, biofilms biomass): 2.8 ± 4.2%
- inhibition at 150 µM ([4]; 150 µM, read-out: Average inhibition %, planktonic cells turbidity): 11.4 ± 10.1%
- inhibition at 200 µM ([4]; 200 µM, read-out: Average inhibition %, biofilms biomass): 2.2 ± 2.8%
- inhibition at 200 µM ([4]; 200 µM, read-out: Average inhibition %, planktonic cells turbidity): 16.7 ± 3%
